Data on two compounds can be found in paper PMC4655142 (Neuropharmacology, 2015).

One series concerns C57Bl/6J mice. In words: Tolerance to acute nicotine after chronic treatment. The class given is in vivo. The note with it: Mus musculus, ip.
For series [1] the following is noted: cited from earlier work.
For series [2] the following is noted: cited from earlier work. This is another data set of the same source.
For series [3] the following is noted: cited from earlier work. This is another data set of the same source.
Series [4] concerns the target [125I]-epibatidine binding sites (α4β2-nAChR), cortex membranes (Mus musculus, UniProt O70174+Q9ERK7). In words: Inhibition of [125I]-epibatidine binding to cortex membranes. The arrangement: species or system C57Bl/6J mice.

Like-named read-outs stand apart in the source and are kept apart here.

The ED50 is the midpoint of the dose-response relation. Usually Ki stands for the equilibrium dissociation constant of an inhibitor or competing ligand from its target.

[125I]-epibatidine binding sites (α4β2-nAChR), cortex membranes, sequence (O70174 31-629): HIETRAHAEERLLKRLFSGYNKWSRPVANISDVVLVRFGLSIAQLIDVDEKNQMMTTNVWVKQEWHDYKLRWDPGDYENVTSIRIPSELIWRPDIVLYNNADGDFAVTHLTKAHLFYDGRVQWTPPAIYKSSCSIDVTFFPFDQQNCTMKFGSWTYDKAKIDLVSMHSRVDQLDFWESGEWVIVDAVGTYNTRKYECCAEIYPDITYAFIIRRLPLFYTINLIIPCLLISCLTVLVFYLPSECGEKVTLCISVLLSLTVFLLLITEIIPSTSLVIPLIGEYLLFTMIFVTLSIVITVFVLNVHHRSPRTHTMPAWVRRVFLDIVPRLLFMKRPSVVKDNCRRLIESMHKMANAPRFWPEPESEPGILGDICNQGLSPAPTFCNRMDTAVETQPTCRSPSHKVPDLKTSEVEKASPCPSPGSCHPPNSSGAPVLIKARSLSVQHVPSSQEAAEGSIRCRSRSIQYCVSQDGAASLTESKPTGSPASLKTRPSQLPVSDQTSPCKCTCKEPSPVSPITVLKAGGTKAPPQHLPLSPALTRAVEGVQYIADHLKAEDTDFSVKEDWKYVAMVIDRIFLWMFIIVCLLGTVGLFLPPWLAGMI
[125I]-epibatidine binding sites (α4β2-nAChR), cortex membranes, sequence (Q9ERK7 26-501): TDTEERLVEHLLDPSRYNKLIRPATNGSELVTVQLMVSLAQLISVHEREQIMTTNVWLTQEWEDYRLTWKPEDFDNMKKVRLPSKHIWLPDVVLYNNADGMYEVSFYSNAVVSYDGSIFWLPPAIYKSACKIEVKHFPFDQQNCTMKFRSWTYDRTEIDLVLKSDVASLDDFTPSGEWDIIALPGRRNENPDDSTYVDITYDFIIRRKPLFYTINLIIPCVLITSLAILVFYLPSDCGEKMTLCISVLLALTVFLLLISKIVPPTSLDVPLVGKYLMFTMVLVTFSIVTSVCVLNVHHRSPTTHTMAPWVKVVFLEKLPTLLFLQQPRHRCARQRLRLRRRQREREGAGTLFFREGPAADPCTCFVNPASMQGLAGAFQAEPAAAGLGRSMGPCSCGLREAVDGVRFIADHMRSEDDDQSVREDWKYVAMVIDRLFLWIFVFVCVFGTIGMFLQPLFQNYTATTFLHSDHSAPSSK

Regarding `CN1CCC[C@H]1c1cccnc1` [Nicotine], the 50% effective dose (ED50) was 0.8 ± 0.05 mg/kg in the series on C57Bl/6J mice (24 h, read-out: ED50 of acute ip nicotine, Body temperature); 0.6 ± 0.06 mg/kg with C57Bl/6J mice (24 h, read-out: ED50 of acute ip nicotine, Open field); 0.49 ± 0.04 mg/kg in the series on C57Bl/6J mice (24 h, read-out: ED50 of acute ip nicotine, Y-maze cross); 0.38 ± 0.03 mg/kg with C57Bl/6J mice (24 h, read-out: ED50 of acute ip nicotine, Y-maze rear); 0.88 ± 0.09 mg/kg with C57Bl/6J mice (read-out: ED50 of acute ip nicotine, Body temperature); 0.55 ± 0.06 mg/kg in the series on C57Bl/6J mice (read-out: ED50 of acute ip nicotine, Open field). Further, the median effective dose (ED50) in the series with C57Bl/6J mice (read-out: ED50 of acute ip nicotine, Y-maze cross) stood at 0.47 ± 0.06 mg/kg; in the series with C57Bl/6J mice (read-out: ED50 of acute ip nicotine, Y-maze rear), 0.38 ± 0.05 mg/kg. Moreover, the Plasma level is 40 to 80 ng/mL in series [1] (mice, 12-24 mg/kg/day, ref Marks, Rowell et al., 2004, Matta et al, 2007); 40 to 80 ng/mL in series [1] (mice, similar chronic treatment protocols, ref Marks, Rowell et al., 2004); 160 ng/mL in series [1] (mouse, in vivo, sc, 1 mg/kg); 43 ng/mL in series [2] (rat, sc infusion of 2.4 mg/kg/day, ref Rowell and Li, 1997); 6.5 ng/mL in series [2] (rats, 0.8 mg/kg/day, ref Ghosheh et al, 2001); 146 to 313 ng/mL in series [2] (rats, 6.0 mg/kg/day, ref Hussman, Turner et al, 2012, Doura et al, 2008). The Plasma level result in series [3] (human smokers, pre-quit, smoking cessation trial, ref Dobrinas et al, 2011) is listed as “up to 52 ng/ml”.

In turn, `c1cnc2cc3c(cc2n1)[C@@H]1CNC[C@H]3C1` [Varenicline] yielded an inhibition constant Ki in series [4] of 0.11 ± 0.01 nM. For the same compound, the Peak plasma level in series [1] (mice, single oral dose of 3 mg (or ~120 mg/kg), ref Obach et al, 2006) is 293 ng/mL. For the same compound, the “brain:plasma ratio” value in series [2] (rats, ref Hussmann, Turner et al, 2012) is recorded as 1.5. The Plasma level entry in series [3] (humans taking varenicline, smoking cessation study, ref Dobrinas et al, 2011) is “up to 20 ng/ml”; in series [3] (humans, single oral dose 1 mg (~[…]), ref Obach et al, 2006, Al-Haj et al, 2013) it was 4 to 6 ng/mL. For the same compound, in series [3] (humans, ref Obach et al, 2006), the “t ½” value was 17.6 h.
